# Data: patent US9738634B2, “Heterocyclic amide compound and herbicide” (SYNGENTA PARTICIPATIONS AG, priority 2013, dated 2017)
# Legend:
# Assay type in all cases: in vivo
# barnyard grass [1] = assay: Test Example 1: weedkilling efficacy, preemergent weed treatment in the submerged state; A: barnyard grass; settings: treatment dosage 252 g/ha
# Summary of the method: (§1)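 Emulsion diluted with water to the specified per-hectare dosage is applied onto flood water (4 cm) over alluvial soil on the sowing day, with barnyard grass, bulrush and pondweed seeded and rice (2.5-leaf) transplanted; plants grow at 25–30 °C and are rated at 3 weeks.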
# bulrush [2] = assay: Test Example 1: weedkilling efficacy, preemergent weed treatment in the submerged state; B: bulrush; settings: treatment dosage 252 g/ha
# Summary of the method: as §1
# oval-leafed pondweed [3] = assay: Test Example 1: weedkilling efficacy, preemergent weed treatment in the submerged state; C: oval-leafed pondweed; settings: treatment dosage 252 g/ha
# Summary of the method: as §1
# transplanted rice = assay: Test Example 1: preemergent weed treatment in the submerged state, effect on crop; a: transplanted rice; settings: treatment dosage 252 g/ha
# Summary of the method: as §1
# barnyard grass [4] = assay: Test Example 2: weedkilling efficacy, growth period weed treatment in the submerged state; A: barnyard grass; settings: treatment dosage 252 g/ha
# Summary of the method: (§2)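 First, alluvial soil in pots is flooded to 4 cm and mixed seed is sown. Next, plants grow in a greenhouse at 25 to 30° C until the 1-2 leaf stage. Then diluted emulsion is applied onto the water surface at the given g/ha rate, and injury is assessed after 3 weeks.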
# bulrush [5] = assay: Test Example 2: weedkilling efficacy, growth period weed treatment in the submerged state; B: bulrush; settings: treatment dosage 252 g/ha
# Summary of the method: as §2
# oval-leafed pondweed [6] = assay: Test Example 2: weedkilling efficacy, growth period weed treatment in the submerged state; C: oval-leafed pondweed; settings: treatment dosage 252 g/ha
# Summary of the method: as §2
# crabgrass [7] = assay: Test Example 3: weedkilling efficacy through soil treatment; D: crabgrass; settings: treatment dosage 315 g/ha
# Summary of the method: (§3)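 Crop and weed responses were judged three weeks after a uniform surface spray of the water-diluted emulsion at the given g/ha rate. Seeds sat beneath about 1.5 cm of sterilized diluvial soil, and boxes stood in a greenhouse at 25 to 30° C.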
# green foxtail [8] = assay: Test Example 3: weedkilling efficacy through soil treatment; E: green foxtail; settings: treatment dosage 315 g/ha
# Summary of the method: as §3
# wild oat [9] = assay: Test Example 3: weedkilling efficacy through soil treatment; G: wild oat; settings: treatment dosage 315 g/ha
# Summary of the method: as §3
# black-grass [10] = assay: Test Example 3: weedkilling efficacy through soil treatment; H: black-grass; settings: treatment dosage 315 g/ha
# Summary of the method: as §3
# Italian ryegrass [11] = assay: Test Example 3: weedkilling efficacy through soil treatment; I: Italian ryegrass; settings: treatment dosage 315 g/ha
# Summary of the method: as §3
# Indian mallow [12] = assay: Test Example 3: weedkilling efficacy through soil treatment; K: Indian mallow; settings: treatment dosage 315 g/ha
# Summary of the method: as §3
# redroot pigweed [13] = assay: Test Example 3: weedkilling efficacy through soil treatment; L: redroot pigweed; settings: treatment dosage 315 g/ha
# Summary of the method: as §3
# fig-leafed goosefoot [14] = assay: Test Example 3: weedkilling efficacy through soil treatment; M: fig-leafed goosefoot; settings: treatment dosage 315 g/ha
# Summary of the method: as §3
# catchweed [15] = assay: Test Example 3: weedkilling efficacy through soil treatment; O: catchweed; settings: treatment dosage 315 g/ha
# Summary of the method: as §3
# corn [16] = assay: Test Example 3: soil treatment, effect on crop; c: corn; settings: treatment dosage 315 g/ha
# Summary of the method: as §3
# soybean [17] = assay: Test Example 3: soil treatment, effect on crop; d: soybean; settings: treatment dosage 315 g/ha
# Summary of the method: as §3
# wheat [18] = assay: Test Example 3: soil treatment, effect on crop; e: wheat; settings: treatment dosage 315 g/ha
# Summary of the method: as §3
# beet [19] = assay: Test Example 3: soil treatment, effect on crop; f: beet; settings: treatment dosage 315 g/ha
# Summary of the method: as §3
# crabgrass [20] = assay: Test Example 4: weedkilling efficacy by foliar treatment; D: crabgrass; settings: treatment dosage 315 g/ha
# Summary of the method: (§4)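 Seeds are spot-sown into sterilized diluvial soil and covered with about 1.5 cm of soil. After 14 days' greenhouse growth at 25 to 30° C, plants are sprayed on stems and leaves with diluted emulsion at the stated g/ha rate, then scored at 3 weeks.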
# green foxtail [21] = assay: Test Example 4: weedkilling efficacy by foliar treatment; E: green foxtail; settings: treatment dosage 315 g/ha
# Summary of the method: as §4
# wild oat [22] = assay: Test Example 4: weedkilling efficacy by foliar treatment; G: wild oat; settings: treatment dosage 315 g/ha
# Experimental: Testing of Weedkilling Efficacy by Foliar Treatment
# Sterilized diluvial soil was introduced into 21 cm long, 13 cm wide, 7 cm deep plastic boxes, and seeds of crabgrass, green foxtail, barnyard grass, wild oat, black-grass, Italian ryegrass, common wind-grass, Indian mallow, redroot pigweed, fig-leafed goosefoot, chickweed, catchweed, birds-eye speedwell, corn, soybean, rice, wheat, beet and rapeseed were each spot-sown, and covered with about 1.5 cm of soil, then the plants were grown in a greenhouse at 25 to 30° C.
# After they had grown for 14 days, emulsions of compounds of the present invention prepared according to compounding example 2 were diluted with water to give the specified dosages, and applied uniformly onto the stem and leaf parts with a small sprayer. 3 weeks after the pesticide treatment the effect on each type of plant was investigated on the basis of the assessment criteria of test example 1.
# A: barnyard grass, B: bulrush, C: oval-leafed pondweed, D: crabgrass, E: green foxtail, F: barnyard grass, G: wild oat, H: black-grass, I: Italian ryegrass, J: common wind-grass, K: Indian mallow, L: redroot pigweed, M: fig-leafed goosefoot, N: chickweed, O: catchweed, p: birds-eye speedwell, a: transplanted rice, b: directly sown rice, c: corn, d: soybean, e: wheat, f: beet, g: rapeseed
# Further, pesticide dosage (g/ha) indicates the concentration regulated such that treatment was with only the stated number of grams (g), when calculated per hectare (ha).
# black-grass [23] = assay: Test Example 4: weedkilling efficacy by foliar treatment; H: black-grass; settings: treatment dosage 315 g/ha
# Summary of the method: as §4
# Italian ryegrass [24] = assay: Test Example 4: weedkilling efficacy by foliar treatment; I: Italian ryegrass; settings: treatment dosage 315 g/ha
# Summary of the method: as §4
# Indian mallow [25] = assay: Test Example 4: weedkilling efficacy by foliar treatment; K: Indian mallow; settings: treatment dosage 315 g/ha
# Summary of the method: as §4
# redroot pigweed [26] = assay: Test Example 4: weedkilling efficacy by foliar treatment; L: redroot pigweed; settings: treatment dosage 315 g/ha
# Summary of the method: as §4
# fig-leafed goosefoot [27] = assay: Test Example 4: weedkilling efficacy by foliar treatment; M: fig-leafed goosefoot; settings: treatment dosage 315 g/ha
# Summary of the method: as §4
# chickweed = assay: Test Example 4: weedkilling efficacy by foliar treatment; N: chickweed; settings: treatment dosage 315 g/ha
# Summary of the method: as §4
# catchweed [28] = assay: Test Example 4: weedkilling efficacy by foliar treatment; O: catchweed; settings: treatment dosage 315 g/ha
# Summary of the method: as §4
# directly sown rice = assay: Test Example 4: foliar treatment, effect on crop; b: directly sown rice; settings: treatment dosage 315 g/ha
# Summary of the method: as §4
# corn [29] = assay: Test Example 4: foliar treatment, effect on crop; c: corn; settings: treatment dosage 315 g/ha
# Summary of the method: as §4
# soybean [30] = assay: Test Example 4: foliar treatment, effect on crop; d: soybean; settings: treatment dosage 315 g/ha
# Summary of the method: as §4
# wheat [31] = assay: Test Example 4: foliar treatment, effect on crop; e: wheat; settings: treatment dosage 315 g/ha
# Summary of the method: as §4
# beet [32] = assay: Test Example 4: foliar treatment, effect on crop; f: beet; settings: treatment dosage 315 g/ha
# Summary of the method: as §4
compound,measurement,setting,value
CC1=C(c2ccccc2)C(=O)N(C(C)(C)C(=O)Nc2ccnc(C(F)(F)F)c2)CO1 [B-4-06],A (barnyard grass) weedkilling efficacy grade,barnyard grass [1],"5 (weed kill ratio 90% or more, (practically complete withering))"
same,B (bulrush) weedkilling efficacy grade,bulrush [2],"5 (weed kill ratio 90% or more, (practically complete withering))"
same,C (oval-leafed pondweed) weedkilling efficacy grade,oval-leafed pondweed [3],"5 (weed kill ratio 90% or more, (practically complete withering))"
same,a (transplanted rice) effect on crop grade,transplanted rice,0 (weed kill ratio 5% or less (practically no effect))
same,A (barnyard grass) weedkilling efficacy grade,barnyard grass [4],"4 (weed kill ratio 70% or more, less than 90%)"
same,B (bulrush) weedkilling efficacy grade,bulrush [5],"5 (weed kill ratio 90% or more, (practically complete withering))"
same,C (oval-leafed pondweed) weedkilling efficacy grade,oval-leafed pondweed [6],"5 (weed kill ratio 90% or more, (practically complete withering))"
same,D (crabgrass) weedkilling efficacy grade,crabgrass [7],"5 (weed kill ratio 90% or more, (practically complete withering))"
same,E (green foxtail) weedkilling efficacy grade,green foxtail [8],"5 (weed kill ratio 90% or more, (practically complete withering))"
same,G (wild oat) weedkilling efficacy grade,wild oat [9],"5 (weed kill ratio 90% or more, (practically complete withering))"
same,H (black-grass) weedkilling efficacy grade,black-grass [10],"5 (weed kill ratio 90% or more, (practically complete withering))"
same,I (Italian ryegrass) weedkilling efficacy grade,Italian ryegrass [11],"5 (weed kill ratio 90% or more, (practically complete withering))"
same,K (Indian mallow) weedkilling efficacy grade,Indian mallow [12],"1 (weed kill ratio 5% or more, less than 20%)"
same,L (redroot pigweed) weedkilling efficacy grade,redroot pigweed [13],"3 (weed kill ratio 40% or more, less than 70%)"
same,M (fig-leafed goosefoot) weedkilling efficacy grade,fig-leafed goosefoot [14],"4 (weed kill ratio 70% or more, less than 90%)"
same,O (catchweed) weedkilling efficacy grade,catchweed [15],"4 (weed kill ratio 70% or more, less than 90%)"
same,c (corn) effect on crop grade,corn [16],"2 (weed kill ratio 20% or more, less than 40%)"
same,d (soybean) effect on crop grade,soybean [17],0 (weed kill ratio 5% or less (practically no effect))
same,e (wheat) effect on crop grade,wheat [18],"3 (weed kill ratio 40% or more, less than 70%)"
same,f (beet) effect on crop grade,beet [19],"4 (weed kill ratio 70% or more, less than 90%)"
same,D (crabgrass) weedkilling efficacy grade,crabgrass [20],"5 (weed kill ratio 90% or more, (practically complete withering))"
same,E (green foxtail) weedkilling efficacy grade,green foxtail [21],"5 (weed kill ratio 90% or more, (practically complete withering))"
same,G (wild oat) weedkilling efficacy grade,wild oat [22],"5 (weed kill ratio 90% or more, (practically complete withering))"
same,H (black-grass) weedkilling efficacy grade,black-grass [23],"5 (weed kill ratio 90% or more, (practically complete withering))"
same,I (Italian ryegrass) weedkilling efficacy grade,Italian ryegrass [24],"5 (weed kill ratio 90% or more, (practically complete withering))"
same,K (Indian mallow) weedkilling efficacy grade,Indian mallow [25],"3 (weed kill ratio 40% or more, less than 70%)"
same,L (redroot pigweed) weedkilling efficacy grade,redroot pigweed [26],"4 (weed kill ratio 70% or more, less than 90%)"
same,M (fig-leafed goosefoot) weedkilling efficacy grade,fig-leafed goosefoot [27],"4 (weed kill ratio 70% or more, less than 90%)"
same,N (chickweed) weedkilling efficacy grade,chickweed,"3 (weed kill ratio 40% or more, less than 70%)"
same,O (catchweed) weedkilling efficacy grade,catchweed [28],"4 (weed kill ratio 70% or more, less than 90%)"
same,b (directly sown rice) effect on crop grade,directly sown rice,"5 (weed kill ratio 90% or more, (practically complete withering))"
same,c (corn) effect on crop grade,corn [29],"5 (weed kill ratio 90% or more, (practically complete withering))"
same,d (soybean) effect on crop grade,soybean [30],"4 (weed kill ratio 70% or more, less than 90%)"
same,e (wheat) effect on crop grade,wheat [31],"1 (weed kill ratio 5% or more, less than 20%)"
same,f (beet) effect on crop grade,beet [32],"3 (weed kill ratio 40% or more, less than 70%)"
